Experimental data: patent US5545618A, “GLP-1 analogs useful for diabetes treatment” (priority 1993, dated 1996)
Where two headings read alike, the source gives them in different places. One block for each molecule: values may come before it. Where no end group is shown, it is not given here.

Columns and labels:
RIN 1046-38 cells = test system: RIN 1046-38 cells
Procedure: An additional test for potency of the compounds of the invention measures their ability to stimulate cAMP production in RIN 1046-38 cells. This assay can be conducted as follows:
On day 1, 5×10^5 RIN 1046-38 cells (Drucker, D. J., et al., Proc Natl Acad Sci USA (1987) 84:3434-3438) are seeded into individual wells of 6-well dishes with 2.5 mL M199 culture medium. On day 4, cells are re-fed with fresh medium and on day 5 the assay is performed. […] Assays are only performed on cell passage ≤24.
At time -60 min, monolayers are washed twice with 2.5 mL PBS, and medium is changed to 1.0 mL of DMEM medium plus 4.5 g/l glucose and 0.1% BSA (assay medium). At 0 time, medium is aspirated and fresh assay medium, 1.0 mL, containing test compound is added. Test compound is added in 50 ul volume of PBS plus 0.1% BSA; controls are added in vehicle alone. Incubation is continued for 0 to 60 min.
At termination, conditioned medium and monolayer are harvested to measure both extra- and intracellular cAMP content. For extracellular measurement, medium is removed and centrifuged to remove any cellular debris. For intracellular determination, after medium removal, 1.0 mL of ice cold 95% ethanol is added to monolayer. Cells are collected by scraping, lysed by two cycles of quick freeze/thawing using liquid N2, and cell debris then removed by centrifugation. Aliquots (1/40th well content) of conditioned medium and ethanol cell extract are measured in duplicate for cAMP levels using an RIA kit by the acetylated protocol.
Insulin secretion can also be measured by the method described by Holst, J. J., et al. FEBS Letters (1987) 211:169-174 (supra). Also useful as an assay for insulinotropic effect is the measurement of stimulation of adenylate cyclase in the RIN 1046-38 cell line. Drucker, D. J. et al., Proc Natl Acad Sci USA (1987) 84:3434-3438 (supra).

[1] = degradation in plasma by RP-HPLC; assay type: in vitro ADME; details: incubation in plasma for 60 minutes; also: key: +: degradation was not observed; -: was complete after this time
[2] = assay type: in vitro ADME
Procedure: Polyclonal antisera were raised in New Zealand White rabbits against a synthetic peptide fragment corresponding to residues 24 to 37 of GLP-1(7-37) using the method of Mosjoy, S. et al., J Biol Chem (1986) 261:11880-11889. Initial immunizations were into the inguinal lymph nodes and used Freund's complete adjuvant. Two subcutaneous boosts were performed at 1 week intervals after the initial immunization and used Freund's incomplete adjuvant. For a single immunization or boost 100 μg peptide and 100 μg methylated BSA dissolved in 0.3 mL phosphate-buffered saline (PBS) were emulsified with 0.9 mL adjuvant. Bleeds (50 mL) began at week 6 after the initial immunization and continued at 1 month intervals thereafter. Repeat boosts were performed as above when titers dropped noticeably from the level of the previous bleed.

Resistance to Degradation [1]: -
Molecule: CC[C@H](C)[C@H](NC(=O)[C@H](Cc1ccccc1)NC(=O)[C@H](CCC(=O)O)NC(=O)[C@H](CCCCN)NC(=O)[C@H](C)NC(=O)[C@H](C)NC(=O)[C@H](CCC(N)=O)NC(=O)CNC(=O)[C@H](CCC(=O)O)NC(=O)[C@H](CC(C)C)NC(=O)[C@H](Cc1ccc(O)cc1)NC(=O)[C@H](CO)NC(=O)[C@H](CO)NC(=O)[C@@H](NC(=O)[C@H](CC(=O)O)NC(=O)[C@H](CO)NC(=O)[C@@H](NC(=O)[C@H](Cc1ccccc1)NC(=O)[C@@H](NC(=O)CNC(=O)[C@@H](CC(=O)O)NC(=O)[C@H](C)NC(=O)[C@@H](N)Cc1c[nH]cn1)[C@@H](C)O)[C@@H](C)O)C(C)C)C(=O)N[C@@H](C)C(=O)N[C@@H](Cc1c[nH]c2ccccc12)C(=O)N[C@@H](CC(C)C)C(=O)N[C@H](C(=O)N[C@@H](CCCCN)C(=O)NCC(=O)N[C@@H](CCCNC(=N)N)C(=O)NCC(=O)O)C(C)C [(D^.dagger.)^9 -GLP-1(7-37)]
ED50 nM Duplicate Assays (first value) (RIN 1046-38 cells): 0.90 nM | ED50 nM Duplicate Assays (second value) (RIN 1046-38 cells): 0.90 nM

Resistance to Degradation [1]: -
Molecule: CC[C@H](C)[C@H](NC(=O)[C@H](Cc1ccccc1)NC(=O)[C@H](CCC(=O)O)NC(=O)[C@H](CCCCN)NC(=O)[C@H](C)NC(=O)[C@H](C)NC(=O)[C@H](CCC(N)=O)NC(=O)CNC(=O)[C@H](CCC(=O)O)NC(=O)[C@H](CC(C)C)NC(=O)[C@H](Cc1ccc(O)cc1)NC(=O)[C@H](CO)NC(=O)[C@H](CO)NC(=O)[C@@H](NC(=O)[C@H](CC(=O)O)NC(=O)[C@H](CO)NC(=O)[C@@H](NC(=O)[C@H](Cc1ccccc1)NC(=O)[C@@H](NC(=O)CNC(=O)[C@H](CCC(=O)O)NC(=O)[C@H](C)NC(=O)[C@@H](N)Cc1ccc(O)cc1)[C@@H](C)O)[C@@H](C)O)C(C)C)C(=O)N[C@@H](C)C(=O)N[C@@H](Cc1c[nH]c2ccccc12)C(=O)N[C@@H](CC(C)C)C(=O)N[C@H](C(=O)N[C@@H](CCCCN)C(=O)NCC(=O)N[C@@H](CCCNC(=N)N)C(=O)NCC(=O)O)C(C)C [(Y)^7 -GLP-1(7-37)]

Further lines, the molecule ahead of its results:

Molecule: CC[C@H](C)[C@H](NC(=O)[C@H](Cc1ccccc1)NC(=O)[C@H](CCC(=O)O)NC(=O)[C@H](CCCCN)NC(=O)[C@H](C)NC(=O)[C@H](C)NC(=O)[C@H](CCC(N)=O)NC(=O)CNC(=O)[C@H](CCC(=O)O)NC(=O)[C@H](CC(C)C)NC(=O)[C@H](Cc1ccc(O)cc1)NC(=O)[C@H](CO)NC(=O)[C@H](CO)NC(=O)[C@@H](NC(=O)[C@H](CC(=O)O)NC(=O)[C@H](CO)NC(=O)[C@@H](NC(=O)[C@H](Cc1ccccc1)NC(=O)[C@@H](NC(=O)CNC(=O)[C@H](CCC(N)=O)NC(=O)[C@H](C)NC(=O)[C@@H](N)Cc1c[nH]cn1)[C@@H](C)O)[C@@H](C)O)C(C)C)C(=O)N[C@@H](C)C(=O)N[C@@H](Cc1c[nH]c2ccccc12)C(=O)N[C@@H](CC(C)C)C(=O)N[C@H](C(=O)N[C@@H](CCCCN)C(=O)NCC(=O)N[C@@H](CCCNC(=N)N)C(=O)NCC(=O)O)C(C)C [(Q)^9 GLP-1 (7-37)]
Resistance to Degradation [1]: -

Molecule: GLP-1(7-37)
ability of recovered fragment to inhibit binding of radiolabeled GLP-1(7-37) to carboxy terminal-specific antibody [2]: no diminution | ED50 nM Duplicate Assays (first value) (RIN 1046-38 cells; cAMP stimulation in RIN 1046-38 cells, first of duplicate assays): 0.16 nM | ED50 nM Duplicate Assays (second value) (RIN 1046-38 cells; cAMP stimulation in RIN 1046-38 cells, second of duplicate assays): 0.25 nM

Molecule: HSQGTFTSDYSKYLDGQAAKEFIAWLVKGRG [(S)^8 (Q)^9 (Y)^16 (K)^18 (D)^21 -GLP-1(7-37)]
Resistance to Degradation [1]: -
